Laboratory results as given in paper PMC6270837, “Preparation and Biological Properties of Ring-Substituted Naphthalene-1-Carboxanilides” (Molecules, 2014).
“And” between values parts separate entries of the source, which are not always exact repeats. Equal values may be shown once. Read-outs that look alike come from different tables or passages of the source.

How the values were obtained:
[1] = Lipophilicity determination by RP-HPLC (capacity factor, log k); format: physicochemical; settings: end-capped C18, isocratic MeOH 60%/H2O 40%
Description: Lipophilicity is a property that has a major effect on bioavailability, biotransformation as well as pharmacological activity, because drugs cross biological membranes through passive transport, which strongly depends on their lipophilicity. Lipophilicity of the studied compounds was determined by RP‑HPLC as capacity factor logarithm (log k). The procedure was performed under isocratic conditions with methanol as an organic modifier in the mobile phase using an end-capped non-polar C18 stationary RP column. The results of ring-substituted naphthalene-1-carboxanilides 1–8c are shown in Table 1 and illustrated in Figure 1. […] Lipophilicity was also calculated as log P using ACD/Percepta ver. 2012 (Advanced Chemistry Development, Inc., Toronto, ON, Canada).
A HPLC system Agilent 1200 equipped with DAD detector (Agilent, USA) was used. A chromatographic column Symmetry® C18 5 μm, 4.6 × 250 mm, Part No. WAT054275 (Waters Corp., Milford, MA, USA) was used. The HPLC separation process was monitored and evaluated by EZChrom Elite software ver. 3.3.2 (Agilent, USA). Isocratic elution by a mixture of MeOH p.a. (60%) and H2O-HPLC Mili-Q grade (40%) as a mobile phase was used. The total flow of the column was 1.0 mL/min, injection 20 μL, column temperature 40 °C, and sample temperature 10 °C. The detection wavelength 210 nm was chosen. The KI methanolic solution was used for the dead time (tD) determination. Retention times (tR) were measured in minutes. The capacity factors k were calculated according to formula k = (tR − tD)/tD, where tR is the retention time of the solute, whereas tD denotes the dead time obtained using an unretained analyte. Log k, calculated from the capacity factor k, is used as the lipophilicity index converted to log P scale.

[2] = Solubility in PET tested medium; format: physicochemical; settings: PET assay medium, phosphate buffer pH 7.2, DMSO up to 4%
Description: (§1) Chloroplasts were prepared from spinach (Spinacia oleracea L.) according to Masarovicova and Kralova. The inhibition of photosynthetic electron transport (PET) in isolated spinach chloroplasts was determined spectrophotometrically (Genesys 6, Thermo Scientific, USA), using an artificial electron acceptor 2,6-dichlorophenol-indophenol (DCIPP) according to Kralova et al., and the rate of photosynthetic electron transport was monitored as a photoreduction of DCPIP. The measurements were carried out in phosphate buffer (0.02 mol/L, pH 7.2) containing sucrose (0.4 mol/L), MgCl2 (0.005 mol/L) and NaCl (0.015 mol/L). The chlorophyll content was 30 mg/L in these experiments and the samples were irradiated (~100 W/m^2 with 10 cm distance) with a halogen lamp (250 W) using a 4 cm water filter to prevent warming of the samples (suspension temperature 22 °C). The studied compounds were dissolved in DMSO due to their limited water solubility. […] The inhibitory efficiency of the studied compounds was expressed by IC50 values, i.e., by molar concentration of the compounds causing 50% decrease in the oxygen evolution rate relative to the untreated control.

[3] = test system: photosynthetic electron transport (PET) in isolated spinach chloroplasts; test: Inhibition of photosynthetic electron transport (PET) in isolated spinach chloroplasts; format: biochemical, Spinacia oleracea L.; settings: DCPIP photoreduction
Description: The PET-inhibiting activity was expressed by IC50 value, i.e., compound concentration in mol/L causing 50% inhibition of PET.
as §1

[4] = test system: Mycobacterium avium subsp. paratuberculosis CIT03; test: In vitro antimycobacterial evaluation (MIC/IC90, alamarBlue); format: cell-based; settings: for MIC: Mycobacterium avium
Description: The MIC/IC90 value is routinely and widely used in bacterial assays and is a standard detection limit according to the Clinical and Laboratory Standards Institute.
A well-characterized clinical isolate of Mycobacterium avium subsp. paratuberculosis (CIT03) was grown in Middlebrook broth (MB), supplemented with Oleic-Albumin-Dextrose-Catalase supplement (OADC, Becton, Dickinson and Comp., Franklin Lakes, NJ, USA) and mycobactin J (2 µg/mL). Identification of this isolate was performed using biochemical and molecular protocols. At log phase growth, a culture sample (10 mL) was centrifuged at 15,000 rpm/20 min using a bench top centrifuge (Model CR 4-12, Jouan Inc., Winchester, VA, USA). Following removal of the supernatant, the pellet was washed in fresh Middlebrook 7H9GC broth and re-suspended in fresh supplemented MB (10 mL). The turbidity was adjusted to match McFarland standard No. 1 (3 × 10^8 cfu) with MB broth. A further 1:20 dilution of the culture was then performed in MB broth. The antimicrobial susceptibility of the mycobacterial species was investigated in a 96-well plate format. In these experiments, sterile deionized water (300 µL) was added to all outer-perimeter wells of the plates to minimize evaporation of the medium in the test wells during incubation. Each evaluated compound (100 µL) was incubated with the mycobacterial species (100 µL). Dilutions of each compound were prepared in duplicate. For all synthesized compounds, final concentrations ranged from 1,000 µg/mL to 8 µg/mL. All compounds were prepared in DMSO and subsequent dilutions were made in supplemented MB. The plates were sealed with parafilm and incubated at 37 °C for 11 days.
Following incubation, a 10% addition of alamarBlue (AbD Serotec, Kidlington, UK) was mixed into each well and readings at 570 nm and 600 nm were taken, initially for background subtraction and subsequently after 24 h re-incubation. […] For non-interfering compounds, a blue colour in the well was interpreted as an absence of growth and a pink colour was scored as growth. Furthermore percent reduction of alamarBlue was calculated to generate quantitative data on cell viability during exposure to antimycobacterial compounds over a period of 5 days. The formula used to determine percent reduction of alamarBlue has been standardized for colorimetric analysis by Abd Serotec.
The MIC value is routinely and widely used in bacterial assays and is a standard detection limit according to the Clinical and Laboratory Standards Institute.

[5] = 264 h, clinical isolate CIT03, 11 days at 37 °C, alamarBlue, MIC = 90% or greater reduction of growth, read-out: MAP MIC/IC90

| Compound | log k [1] | solubility in tested medium (PET experiments) [2] | IC50 [3] | other results |
| --- | --- | --- | --- | --- |
| O=C(Nc1ccc(F)cc1)c1cccc2ccccc12 [Compound 4c, N-(4-Fluorophenyl)naphthalene-1-carboxamide] | 0.6315 | precipitation |  |  |
| O=C(Nc1ccc(Br)cc1)c1cccc2ccccc12 [Compound 6c, N-(4-Bromophenyl)naphthalene-1-carboxamide] | 0.9985 | limited solubility | 365 µM | MIC [4, 5]: 184 µM |
| O=C(Nc1ccccc1[N+](=O)[O-])c1cccc2ccccc12 [Compound 8a, N-(2-Nitrophenyl)naphthalene-1-carboxamide] | 0.9090 | limited solubility | 476 µM |  |
| O=C(Nc1cccc(Cl)c1)c1cccc2ccccc12 [Compound 5b, N-(3-Chlorophenyl)naphthalene-1-carboxamide] | 0.9357 |  | 107 µM |  |
| CO[C@H]1/C=C/O[C@@]2(C)Oc3c(C)c(O)c4c(O)c(c(/C=N/N5CCN(C)CC5)c(O)c4c3C2=O)NC(=O)/C(C)=C\C=C\[C@H](C)[C@H](O)[C@@H](C)[C@@H](O)[C@@H](C)[C@H](OC(C)=O)[C@@H]1C [RIF, rifampicin, reference compound] |  |  |  | MIC ([4]; 264 h, read-out: MAP MIC/IC90): 109 µM; MIC ([4]; clinical isolate CIT03, read-out: MIC): 90 µg/mL; MAP MIC/IC90 ([4]; clinical isolate CIT03, 11 days at 37 °C, alamarBlue, MIC = 90% or greater reduction of growth): 109 µmol/L |
| O=C(Nc1ccccc1Cl)c1cccc2ccccc12 [Compound 5a, N-(2-Chlorophenyl)naphthalene-1-carboxamide] | 0.8322 | precipitation |  |  |
| O=C(Nc1cccc(Br)c1)c1cccc2ccccc12 [Compound 6b, N-(3-Bromophenyl)naphthalene-1-carboxamide] | 1.0047 | limited solubility | 278 µM |  |
| O=C(Nc1ccc(C(F)(F)F)cc1)c1cccc2ccccc12 [Compound 7c, N-[4-(Trifluoromethyl)phenyl]naphthalene-1-carboxamide] | 1.1480 |  | 59 µM | MIC [4, 5]: 793 µM |
| O=C(Nc1cccc([N+](=O)[O-])c1)c1cccc2ccccc12 [Compound 8b, N-(3-Nitrophenyl)naphthalene-1-carboxamide] | 0.8155 | limited solubility | 492 µM |  |
| O=C(Nc1cccc(C(F)(F)F)c1)c1cccc2ccccc12 [Compound 7b, N-[3-(Trifluoromethyl)phenyl]naphthalene-1-carboxamide] | 1.0862 |  | 114 µM |  |
| O=C(Nc1ccccc1C(F)(F)F)c1cccc2ccccc12 [Compound 7a, N-[2-(Trifluoromethyl)phenyl]naphthalene-1-carboxamide] | 0.7595 | precipitation |  |  |
| O=C(Nc1ccc(Cl)cc1)c1cccc2ccccc12 [Compound 5c, N-(4-Chlorophenyl)naphthalene-1-carboxamide] | 0.9223 |  | 102 µM |  |
| NNC(=O)c1ccncc1 [INH, isoniazid, reference compound] |  |  |  | MIC [4, 5]: 1820 µM |
| O=C(Nc1ccccc1Br)c1cccc2ccccc12 [Compound 6a, N-(2-Bromophenyl)naphthalene-1-carboxamide] | 0.8892 | precipitation |  |  |
| CN(C)C(=O)Nc1ccc(Cl)c(Cl)c1 [DCMU, 3-(3,4-dichlorophenyl)-1,1-dimethylurea, reference compound] |  |  | ~1.9 µM and 1.9 µM |  |
| COc1ccc(NC(=O)c2cccc3ccccc23)cc1 [Compound 2c, N-(4-Methoxyphenyl)naphthalene-1-carboxamide] | 0.4953 |  |  |  |
| O=C(Nc1ccccc1F)c1cccc2ccccc12 [Compound 4a, N-(2-Fluorophenyl)naphthalene-1-carboxamide] | 0.5592 | precipitation |  |  |
| Cc1ccccc1NC(=O)c1cccc2ccccc12 [Compound 3a, N-(2-Methylphenyl)naphthalene-1-carboxamide] | 0.5309 |  |  |  |
| O=C(Nc1ccc([N+](=O)[O-])cc1)c1cccc2ccccc12 [Compound 8c, N-(4-Nitrophenyl)naphthalene-1-carboxamide] | 0.7328 |  | 129 µM |  |
| O=C(Nc1ccccc1)c1cccc2ccccc12 [Compound 1, N-Phenylnaphthalene-1-carboxamide] | 0.5620 |  |  |  |
